Experimental data reported in patent US20220241369A1, “COMPOSITIONS AND METHODS OF MODULATING INFLAMMATION” (La Jolla Institute for Allergy and Immunology, priority 2018, published 2022).

What was measured:
[1] = test system: OVA-induced food allergy (allergic diarrhea); assay: IgE-mediated experimental food allergy, i.g. pretreatment with HRF inhibitor before each OVA challenge; assay type: in vivo, mouse; details: i.g. pretreatment; serum ELISA
Procedure: FIGS. 1A-1I show GST-N19 inhibits the development of diarrhea and intestinal mastocytosis in murine food allergy. Mice were i.p. sensitized with OVA ([…]) plus alum on days 0 and 14. From day 28, mice were i.g. challenged with OVA (50 mg) three times a week. Sensitized mice were either non-pretreated (−) or i.g. pretreated with 100 μg of GST or GST-N19 (N19). (FIG. 1A) Procedure scheme. (FIG. 1B) The development of diarrhea was monitored for 90 min after each OVA challenge. (n=5 for non-sensitized group, n=3 for inhibitor non-pretreated group, n=4 for GST group, n=6 for N19 group, data are representative of at least 3 independent experiments) Log-rank test: p=0.028 (GST vs. GST-N19), p=0.036 (control vs. GST-N19). […] (FIG. 1C-FIG. 1E) Total IgE, IgG1, HRF, and HRF-reactive IgE and IgG in sera were measured by ELISA. (FIG. 1F) Serum mMCP-1 was also measured by ELISA. (FIG. 1G) Sections of jejunum were stained with chloroacetate esterase to identify mast cells. Sections indicated by rectangles are enlarged in lower rows. Bar=100 μm in large pictures and 50 μm in insets. (FIG. 1H) Flow cytometry was performed to enumerate MMC9s (Lin^−c-Kit^+ST2^+IL-17RB^−Integrin β7^lo) in jejunum. (n=14 for non-sensitized group, n=15 for inhibitor non-pretreated group, n=9 for GST group, n=9 for GST-N19 group, pooled data of 3 independent experiments) (FIG. 1I) Cytokine mRNAs in jejunum were quantified by qRT-PCR. *, **: p<0.05, p<0.01 by ANOVA with Tukey's multiple comparison.
Mice were i.p. sensitized with OVA (50 μg/mouse) plus alum on days 0 and 14. From day 28, mice were i.g. challenged with OVA (25 or 50 mg) or PBS (control) three times a week. Before each challenge, mice were starved for 3 h, then i.g. pretreated with GST, GST-N19 (100 μg/mouse), synthetic N19 peptide, or HRF-2CA. The development of diarrhea was monitored for 90 min after OVA challenge. Diarrhea severity (30) was based on states of stool: solid (score 0), funicular (score 1), slurry (score 2), and watery (score 3).
For histologic analysis, jejunal tissue was fixed in 10% formalin. Mast cells in jejunal sections were detected by chloroacetate esterase staining. IgE, IgG, IgG1, IgG2a, mMCP-1, HRF, HRF-reactive IgE, and HRF-reactive IgG 24 h after the last OVA challenge were measured by ELISA (see Supplemental Information). Cytokine mRNAs in jejunum were quantified by qRT-PCR.
Twenty-four hours after the last OVA challenge, mice were sacrificed and small intestines (0.5-15 cm from stomach) were collected. The intestinal tissues were opened longitudinally and washed with HBSS. The washed tissues were incubated with 5 mM EDTA-HBSS for 30 min at 4° C., transferred to 30 ml HBSS in 50 ml tubes, and vigorously shaken to remove intestinal epithelial cells. The tissues were then washed with 10 ml of 10% FCS RPMI medium. Tissues were cut into tiny pieces and incubated with 2.4 mg/ml Collagenase D and 0.2 mg/ml DNase for 30 min at 37° C. Then cells were washed, resuspended in 44% Percoll solution, and slowly loaded on the top of 67% Percoll solution. The cells were centrifuged (1800 rpm, 20 min) and lymphocyte fractions were collected and used for detection of MMC9s (Lin^−c-Kit^+ST2^+IL-17RB^−Integrin β7^lo).
The cells were first incubated with 2.4G2 for 15 min at 4° C. and further incubated with Abs (PE-anti-07 integrin mAb (clone FIB504), PerCP/Cy5.5-anti-CD4 mAb (clone RM4-5), PerCP/Cy5.5-anti-CD8 mAb (clone 53-6.7), PerCP/Cy5.5-anti-CD11b mAb (clone M1/70), PerCP/Cy5.5-anti-CD11c mAb (clone N418), PerCP/Cy5.5-anti-B220 mAb (RA3-6B2), PerCP/Cy5.5-anti-Ly-6G/Ly-6C mAb (clone RB6-8C5), PerCP/Cy5.5-anti-CD335 mAb (clone 29A1.4), AlexaFluor647-anti-IL-17RB (clone 9B10), APC/Cy7-anti-CD117 (clone 2B8), Biotin-anti-ST2 (clone DIH9)) (Biolegend) for 30 min at 4° C. After washed, the cells were incubated with SA-BV421 (Biolegend) for 30 min at 4° C. MMC9 population was identified using FACS Canto. Data were analyzed using FlowJo software.

[2] = test system: c-Kit+ mucosal mast cells of the small intestine; assay: Ex vivo mast cell activation test (MCAT); assay type: cell-based, mouse; details: cells from allergic mice, HRF-2CA 300 μg/ml
Procedure: FIGS. 2A-2C show mucosal mast cells can be activated ex vivo by antigen. Cells were released with EDTA from small intestines of non-sensitized/OVA challenged (Cont) or OVA-sensitized/OVA-challenged (OVA) mice, and mononuclear cells were selected. The cells were incubated for 15 min at 37° C. with OVA or anti-IgE antibody, and activation of Kit^+ mast cells was measured by flow cytometry (FIG. 2A, FIG. 2B). **, ***: p<0.01, p<0.001 by Student's t-test. (n=2; a representative of 2 independent experiments) (FIG. 2C) Mucosal cells derived from OVA-sensitized/OVA-challenged mice were stimulated with PBS (n=4), OVA (10 ng/ml, n=4) or HRF dimer (100 μg/ml, n=2) in the presence or absence of HRF-2CA (300 μg/ml).
FIGS. 11A-11C show HRF dimer, but not monomer can activate mast cells. (FIG. 11A) Purified dimeric and monomeric HRF expressed in E. coli. Recombinant HRF-[…] was purified first by Histrap HP and then Sephacryl S-200 HR16/60. Two peaks were observed by Sephacryl size fractionation. The first (Fr1) and second (Fr3) peaks contained dimer and monomer, respectively, as shown by SDS-PAGE. Fr1 and Fr3 were used for mast cell stimulation. (FIG. 11B) Cells were released with 10 mM EDTA from small intestines of OVA-sensitized/OVA-challenged mice, and mononuclear cells were selected. The cells were incubated for 15 min at 37° C. with mHRF monomer or dimer (100 μg/ml), or PBS, and Kit^+ mast cell activation (LAMP-1^+) was measured by flow cytometry (n=3). (FIG. 11C) Control experiments indicate an excellent specificity of the assay for HRF multimers. HRF-2CA (2CA) was used as a monomer control (n=2 for each concentration). Note that total concentrations of the 1:9 mixture of dimer:monomer gave almost the same luminescence values as did ten-fold less concentrations of dimer.
Twenty-four hours after the last OVA challenge, mice were sacrificed and small intestines (0.5-15 cm from stomach) were collected. The intestinal tissues were opened longitudinally and washed with PBS. Then, the tissues were incubated with 10 mM EDTA-PBS for 30 min at 37° C. After incubation, the tissues were transferred to 30 ml PBS in 50 ml tubes and vigorously shaken. After washed, the cells were resuspended in 40% Percoll solution and slowly loaded on the top of 75% Percoll solution. The cells were then centrifuged (2000 rpm, 20 min) and lymphocytes were collected. The cells were once centrifuged and resuspended in Tyrode's buffer. Abs (Biotin-anti-CD4 mAb (clone RM4-5), Biotin-anti-CD8 mAb (clone 53-6.7), Biotin-anti-B220 mAb (clone RA3-6B2), Biotin-anti-CD326 mAb (clone G8.8), PE-anti-CD117 (clone 2B8), AlexaFluor647-anti-LAMP-1 mAb (clone 1D4B)) (Biolegend) were added and cells were then stimulated with OVA, anti-IgE (clone RME-1, BioLegend) and recombinant dimeric murine HRF for 15 min at 37° C. After activation, cells were washed and incubated with FITC-streptavidin (Catalog #405202, Biolegend) for 30 min at 4° C. LAMP-1 expression was detected using FACS Calibur. Data were analyzed using FlowJo software.

[3] = test system: BEAS-2B human bronchial epithelial cells; assay: HRF secretion, western blot, BEAS-2B; assay type: cell-based; details: cultured cells scraped and treated with adenosine and ATP
Description: As lung epithelial cells are exposed to the environment, HRF secretion was studied using BEAS-2B human bronchial epithelial cells. A small amount of HRF was secreted constitutively, but house dust mite allergens induced the secretion of high-molecular-weight HRF species (HMW-HRFs). Various cytokines including epithelial derived cytokines as well as Th2 cytokines and proinflammatory cytokines further enhanced HDM-induced secretion of HMW-HRFs.
Cultured cells were scraped and treated with adenosine and ATP, which should be abundantly present in inflammatory or injured tissues. These conditions induced secretion of HRF monomer, dimer and HMW-HRFs like stimulation with HDM plus cytokines.
Culture supernatants were analyzed by SDS-PAGE under nonreducing (−DTT) and reducing (+DTT) conditions, followed by western blotting for HRF probing. HDM-induced HRF secretion was enhanced not only by Th2 cytokines (IL-4, IL-5, and IL-13), but also by epithelial derived cytokines (IL-25, IL-33, and TSLP) and proinflammatory cytokines (IL-1beta, IL-6 and TNF). med, medium alone; US, unstimulated; HDM, house dust mite; CR, cockroach; RW, ragweed; Af, Aspergillus fumigatus. Arrowhead, HRF monomer.

IgE+ mMCP-1+ mast cells = assay: Localization of gavaged HRF inhibitors in jejunum by confocal microscopy; assay type: in vivo, mouse; details: mice with allergic diarrhea, 1 h after i.g. gavage of 0.1 mg, anti-GST staining
Procedure: HRF multimers in the jejunum of non-sensitized/OVA challenged (Cont, n=6) or OVA-sensitized/OVA-challenged (OVA, n=5) mice were quantified by a newly developed ELISA (FIG. 3A, FIG. 3C). HRF was also measured by ELISA (FIG. 3B). HRF dimer and monomer were quantified by western blotting in control (Cont) and food allergic mice treated without (OVA) or with GST (GST) or GST-N19 (N19) (n=5 for each group) (FIG. 3D). Allergic diarrhea was induced by 6 challenges. On the day of 7th challenge, the mice were gavaged with 0.1 mg of GST or GST-N19 (FIG. 3E). One hour later, mice were sacrificed without OVA challenge. Jejunum tissues were stained for GST, IgE, and mMCP-1 before confocal microscopy (n=5 for GST and n=6 for GST-N19). Arrows indicate cells positive for GST or GST-N19 as well as IgE and mMCP-1. […] Bars=50 μm.
Jejunum biopsy was fixed in 4% paraformaldehyde at 4° C., washed in 10-20% sucrose in phosphate buffered saline, and embedded in O.C.T. compound (Sakura Finetek, Japan). Cyrosections were made in 6 μm and blocked with 2% skim milk. Immunostaining was performed with anti-HRF (rabbit polyclonal FL-172), anti-GST (rabbit polyclonal Z-5) (Santa Cruz Biotechnology), anti-IgE (clone RME-1 from Biolegend and clone R35-72 from BD Biosciences), anti-mMCP1 (Catalog #AF5146, R&D Systems), anti-CD45 (clone 30-F11), anti-CD63 (clone NVG-2) (Biolegend), and anti-Siglec F (clone E50-2440, BD Biosciences) as primary antibodies, and anti-Rabbit Alexa Fluor 647 (Catalog #A21245), anti-Rat Alexa Fluor 568 (Catalog #A11077), and anti-Sheep Alexa Fluor 555 (Catalog #A11015) (Thermo Fisher Scientific) as secondary antibodies. Coverslips were mounted with Prolong Gold with DAPI (Thermo Fisher Scientific) and fluorescence was observed under Leica TCS SP2 confocal microscopy (Leica) and Nuance Multi spectral Imaging System (PerkinElmer).
Applicant next tested whether HRF inhibitors target mucosal mast cells. To this end, mice with allergic diarrhea were i.g. gavaged with GST-N19 or GST, and their location was identified 1 h after their gavage.

With “synthetic N19 peptide: synthesized N19 peptide (N-terminal 19 amino acids of HRF); HRF inhibitor (MIIYRDLISHDEMFSDIYK)” the “levels of total IgE, IgG1, IgG2a or HRF-reactive IgE and IgG” value [1] was “failed to affect”, the “HRF-induced activation of mucosal mast cells” value ([2]; HRF dimer 100 μg/ml) was “significantly suppressed” and the “OVA-induced activation of mucosal mast cells” value ([2]; OVA 10 ng/ml) was “significantly suppressed”.

`Nc1ncnc2c1ncn2[C@@H]1O[C@H](COP(=O)(O)OP(=O)(O)OP(=O)(O)O)[C@@H](O)[C@H]1O` [ATP] was tested, and the “secretion of HRF monomer, dimer and HMW-HRFs” value [3] was “induced”.

“GST: GST protein used as control for GST-N19 [reference compound]” was tested, and the “IgE+ mMCP-1+ mast cells co-localized with the substance” value (IgE+ mMCP-1+ mast cells) was 34%.

In the case of `Nc1ncnc2c1ncn2[C@@H]1O[C@H](CO)[C@@H](O)[C@H]1O` [adenosine], the “secretion of HRF monomer, dimer and HMW-HRFs” value [3] was “induced”.
